According to patent US20020058591A1, “Herbicidal compositions” (priority 2000, published 2002):

Experiments:
Format in all cases: in vivo
[1] = system: Lolium multiflorum (LOLMU); assay: Example B.2 post-emergence spray, greenhouse, visual scoring; conditions: 28 days after application
Description: (§1) The individual components herbicide, surfactant and humectant with regard to type and application rate as stated in Tables 1-4 were added with stirring to a water application rate of 300 l/ha so that a homogeneous spray mixture was formed. The active substances rimsulfuron and nicosulfuron in the commercially available formulations Cato® WG25 (Du Pont) and Motivell® (BASF) were used for this purpose, respectively. Iodosulfuron-methyl-sodium and mesosulfuron-methyl were added in each case as 20 percent water-dispersible powders. Foramsulfuron was used as 50 percent water-dispersible granules. The surfactants used were Genapol® LRO as 70 percent paste (Clariant) and Synperonic® A7 (Unichema).
(§2) Visual scoring was carried out using a percentage scale of 0%=no damage to 100%=all plants dead.
(§3) Seeds of the harmful plants LOLMU, ALOMY, AVEFA, ECHCG and DIGSA were sown in a sandy loam soil in round pots type 7 in a greenhouse and watered slightly. A daytime temperature of 22 to 24° C. and a nighttime temperature of 16 to 18° C. was adhered to, a uniform day length of 16 hours being achieved by additional illumination with sodium vapor lamps (approx. 7000 lux). The relative atmospheric humidity was 60 to 80%. Two weeks after sowing, the plants were treated on a laboratory spray conveyor with the spray mixtures of rimsulfuron (A2), nicosulfuron (A3), iodosulfuron-methyl sodium (A4) and foramsulfuron (A5) and of combinations of A2, A3, A4 and A5 with Genapol® LRO and sodium lactate, the spray mixtures being prepared as in Example A. The water application rate for the spray application of the preparations was 300 l/ha. After the treatment, the plants were returned to the greenhouse.

[2] = system: Alopecurus myosuroides (ALOMY); assay: as above; conditions: 28 days after application
Description: as §1, §2, §3

[3] = system: Digitaria adscendens (DIGSA); assay: as above; conditions: 28 days after application
Description: as §1, §2, §3

[4] = system: Avena fatua (AVEFA); assay: as above; conditions: 28 days after application
Description: as §1, §2, §3

[5] = system: Echinochloa crus-galli (ECHCG); assay: as above; conditions: 28 days after application
Description: as §1, §2, §3

[6] = system: Bromus tectorum (BROTE); assay: Example B.3 post-emergence spray, pots in the open, minimal irrigation, visual scoring; conditions: A1 10 g a.i./ha (surfactant 300, humectant 300 g a.i./ha where combined), 28 days after application
Description: as §1, §2
Seeds of the harmful plant BROTE were sown in a sandy loam soil in round pots type 13 in the open and watered slightly. During the entire experimental period, the substrate only received minimal irrigation. Four weeks after sowing, the plants were treated on a laboratory spray conveyor with spray mixtures of components mesosulfuron-methyl (A1), Genapol® LRO and sodium lactate, A1, Synperonic®A7 and sodium lactate and A1, Genapol® LRO and propylene glycol, the spray mixtures being prepared as in Example A. The water application rate for the spray application of the preparations was 300 l/ha. […]

[7] = system: Lolium multiflorum (LOLMU); assay: Example B.1 post-emergence spray, controlled-environment cabinet, minimal irrigation, visual scoring; conditions: A1 60 g a.i./ha (Genapol LRO 324, sodium lactate 150 g a.i./ha where combined); 14 days after application; 0%=no damage, 100%=all plants dead; 50% rel. humidity
Description: as §1, §2
(§4) Seeds of the harmful plants AVEFA and LOLMU were sown in a sandy loam soil in round pots type 13 in a controlled-environment cabinet and watered slightly. During the entire experiment period, the substrate only received minimal irrigation. A daytime temperature of 18° C. and a nighttime temperature of 16° C. was adhered to, a uniform day length of 16 hours being achieved by additional illumination with sodium vapor lamps (approx. 7000 lux). The relative atmospheric humidity was 50%. […]

[8] = system: Avena fatua (AVEFA); assay: as above; conditions: A1 60 g a.i./ha (Genapol LRO 324, sodium lactate 150 g a.i./ha where combined); 14 days after application; 0%=no damage, 100%=all plants dead; 50% rel. humidity
Description: as §1, §2, §4

Which “Action [%] against harmful plants LOLMU” value ([1]; herbicide 20 g a.i./ha) does the source give for COc1cc(OC)nc(NC(=O)NS(=O)(=O)c2cc(NC=O)ccc2C(=O)N(C)C)n1 [A5, N,N-dimethyl-2-[3-(4,6-dimethoxypyrimidin-2-yl)ureidosulfonyl]4-formylamino-benzamide] here?
Its value is 50%.

And the “Action [%] against harmful plants ALOMY” value ([2]; herbicide 20 g a.i./ha)?
The value was 70%.

What about the “Action [%] against harmful plants DIGSA” value ([3]; herbicide 20 g a.i./ha) of the same compound?
The value was 0%.

And the “Action [%] against harmful plants AVEFA” value ([4]; herbicide 20 g a.i./ha)?
The value was 60%.

And the “Action [%] against harmful plants ECHCG” value ([5]; herbicide 20 g a.i./ha)?
Its value is 30%.

What does the source list for COC(=O)c1ccc(I)cc1S(=O)(=O)NC(=O)Nc1nc(C)nc(OC)n1 [A4, 3-(4-methoxy-6-methyl-1,3,5-triazin-2-yl)-1-(2-methoxycarbonyl-5-iodophenyl-sulfonyl)urea]?
Action [%] against harmful plants LOLMU ([1]; herbicide 20 g a.i./ha): 60%; Action [%] against harmful plants ALOMY ([2]; herbicide 20 g a.i./ha): 50%; Action [%] against harmful plants DIGSA ([3]; herbicide 20 g a.i./ha): 30%; Action [%] against harmful plants AVEFA ([4]; herbicide 20 g a.i./ha): 60%; Action [%] against harmful plants ECHCG ([5]; herbicide 20 g a.i./ha): 70%

Which results are given for CCS(=O)(=O)c1cccnc1S(=O)(=O)NC(=O)Nc1nc(OC)cc(OC)n1 [A2]?
Action [%] against harmful plants LOLMU ([1]; herbicide 5 g a.i./ha): 60%; Action [%] against harmful plants ALOMY ([2]; herbicide 5 g a.i./ha): 70%; Action [%] against harmful plants DIGSA ([3]; herbicide 5 g a.i./ha): 30%; Action [%] against harmful plants AVEFA ([4]; herbicide 5 g a.i./ha): 0%; Action [%] against harmful plants ECHCG ([5]; herbicide 5 g a.i./ha): 10%

Which results are given for COc1cc(OC)nc(NC(=O)NS(=O)(=O)c2ncccc2C(=O)N(C)C)n1 [A3, 1-(3-N,N-dimethylaminocarbonylpyridin-2-ylsulfonyl)-3-(4,6-dimethoxypyrimidin-2-yl)urea]?
Action [%] against harmful plants ALOMY ([2]; herbicide 20 g a.i./ha): 0%; Action [%] against harmful plants AVEFA ([4]; herbicide 20 g a.i./ha): 0%; Action [%] against harmful plants ECHCG ([5]; herbicide 20 g a.i./ha): 0%

Which “Action [%] against harmful plants BROTE” value [6] does the source give for COC(=O)c1ccc(CNS(C)(=O)=O)cc1S(=O)(=O)NC(=O)Nc1nc(OC)cc(OC)n1 [A1, methyl 2-[3-(4,6-dimethoxypyrimidin-2-yl)ureidosulfonyl]4-methanesulfonamido-methylbenzoate] here?
Its value is 12.5%.

What about the “Action [%] against harmful plants LOLMU” value [7] of the same compound?
Its value is 10%.

What about the “Action [%] against harmful plants AVEFA” value [8] of the same compound?
The value was 10%.
